Reference: patent US20010012854A1, “MULTICATALYTIC PROTEASE INHIBITORS FOR USE AS ANTI-TUMOR AGENTS” (priority 1997, published 2001)

Legend:
[1] = tested on: murine melanoma cell line, B16-F0; experiment: In vivo B16-F0 melanoma tumor growth in C57BL mice; details: 10 mg/kg/day, ip
Procedure: a. Materials: MCP inhibitors used for in vivo studies (Compounds D and E) were each formulated in 25% Solutol.
b. Cell line: The murine melanoma cell line, B16-F0, was grown at 37° C. in a humidified incubator, with a 95% air/5% CO2 atmosphere, in Dulbecco's modified Eagle's medium with 4.5 g/l glucose (Cellgro/Mediatech, Washington, D.C.) containing 10% fetal bovine serum (Hyclone Labs, Logan, Utah), 2 mM glutamine (GibcoBRL, Long Island, N.Y.), penicillin (100 I.U./mL) (GibcoBRL), and streptomycin (100 μg/mL) (GibcoBRL). The cells were determined to be free of mycoplasma and rodent viruses (MAP testing). Exponentially growing cells were harvested using 5 mL of warm trypsin/EDTA (0.05%, 0.5 mM)((GibcoBRL). The total volume was brought up to 10 mL with Complete Medium to neutralize trypsin and cells were counted with a hemocytometer. The cells were then collected by brief centrifugation and the cell pellet was resuspended in Phosphate Buffered Saline (GibcoBRL) to achieve the final concentration of 1×10^7 live cells/ml.
c. Animals: Female C57BL mice (20-25 g) obtained from Harlan Sprague Dawley, Indianapolis, Ind. were maintained five mice/cage and given a commercial diet and water ad libitum. […]
e. Tumor measurements: Tumors were measured using a vernier caliper every 2 to 3 days. Tumor volume was calculated using the formula: […]

[2] = tested on: Lewis Lung carcinoma xenografts; experiment: In vivo growth of Lewis Lung carcinoma xenografts in athymic nude mice; parameters: species or system murine; details: 3 mg/kg, s.c., QD, 5 days a week, 12 days
Procedure: Female athymic nude mice were injected s.c. with 1×10^6 Lewis Lung carcinoma cells into the right rear flank. Upon tumors achieving 150 to 200 mm^3 in volume, mice were randomized into groups of ten animals each and dosing commenced with Compound I (2 mg/kg, s.c., QD, 5 days a week), Compound J (3 mg/kg, s.c., QD, 5 days a week), or vehicle alone (30% Solutol) for a total of 12 days. Tumor measurements (volume) were determined with vernier calipers in two dimensions every two to three days. Statistical analyses of drug-associated anti-tumor efficacy relative to vehicle-treated controls were conducted using the Mann-Whitney Rank sum test.

[3] = tested on: PANC-1 pancreatic carcinoma; experiment: Calcein-AM viability assay, PANC-1; format: cell-based; details: Homo sapiens
Procedure: (§1) Cells were initially seeded in 96-well plates at varying density, then assayed using the Calcein-AM viability assay after 24 hours to determine the optimal final density for each cell type. Cells were then seeded in 96-well plates at this density in 100 μL of the proper cell media as follows:
(§2) Serial dilutions of the compounds were made so that concentrations were twice the desired concentration to be evaluated. When 100 μL of the dilution was then added to the cells plated in 100 μL of media, a final concentration of 0, 11.7, 46.9, 187.5, 375 and 750 nM was obtained. Compounds were added to the plates three to four hours after seeding the cells, then the plates were incubated at 37° C. for the desired time point (generally one, two, or three day incubations).
(§3) Calcein-AM viability assays were conducted at the desired time points as follows. Media were aspirated using a manifold and metal plate to leave approximately 50 μL/well. The wells were then washed three times with 200 μL DPBS (Gibco), aspirating each time with the manifold to leave 50 μL/well. A 8 μM solution of Calcein-AM (Molecular Probes) in DPBS was prepared and 150 μL was added to each well. The plates were then incubated at 37° C. for 30 minutes. […] After the final aspiration, fluorescence was measured using a Cytofluor 2300 fluorescence plate reader. […]

[4] = tested on: SKMEL-5 melanoma; experiment: Calcein-AM viability assay, SKMEL-5; format: cell-based; details: Homo sapiens, SK-MEL-5
Procedure: as §1, §2, §3

[5] = tested on: OVCAR-3 ovarian carcinoma; experiment: Calcein-AM viability assay, OVCAR-3; format: cell-based; details: Homo sapiens
Procedure: as §1, §2, §3

[6] = tested on: MCF-7 breast carcinoma; experiment: Calcein-AM viability assay, MCF-7; format: cell-based; details: Homo sapiens, MCF7
Procedure: as §1, §2, §3

[7] = tested on: Lewis lung (murine) lung carcinoma; experiment: Calcein-AM viability assay, Lewis Lung; format: cell-based; details: Mus musculus
Procedure: as §1, §2, §3

[8] = tested on: AT-2 (rat) prostatic carcinoma; experiment: Calcein-AM viability assay, AT-2; format: cell-based
Procedure: as §1, §2, §3

[9] = tested on: DU145 prostatic carcinoma; experiment: Calcein-AM viability assay, DU-145; format: cell-based; details: Homo sapiens
Procedure: as §1, §2, §3

[10] = biological target: MCP chymotrypsin-like activity (Homo sapiens, UniProt P28074); experiment: Inhibition of MCP chymotrypsin-like activity; format: biochemical
Text: (§4) The rank-order potency for Jurkat cell killing precisely matched the order for MCP inhibition (Table 2, below).
Inhibition of the chymotrypsin-like activity of MCP by the disclosed MCP inhibitors has been reported, but these MCP inhibitors produced relatively little inhibition on the MCP trypsin-like activity and cathepsin B, a vacuolar cysteine protease (Iqbal, M., et al. J. Med Chem. 38: 2276-2277, 1995; Iqbal, M., et al. Bioorg. Med. Chem. Lett. 6: 287-290, 1996; and Harding, C. V., et al. J. Immuno. 155: 1767-1775, 1995). Furthermore, the order of potency for inhibition of the chymotrypsin-like activity was reported to be Compound A>Compound B>Compound C by using both isolated MCP and intact murine B cells (Iqbal, M., et al. J. Med Chem. 38: 2276-2277, 1995; Iqbal, M., et al. Bioorg. Med. Chem. Lett. 6: 287-290, 1996; and Harding, C. V., et al. J. Immuno. 155: 1767-1775, 1995).

[11] = tested on: Jurkat Human T Cell Leukemia Line; experiment: Jurkat cell viability assay (XTT reduction); format: cell-based; details: Jurkat cells, 24 hours, viability by XTT reduction, read-out: Toxicity (IC50)
Procedure: f. Cell viability assay. Jurkat cells were treated with MCP inhibitors or vehicle for 30 min. at 37° C. Next, ionomycin (1 μM) and the phorbol ester PMA (10 ng/ml) were added, together with 0.2% ethanol. After 24 h, cell viability was assessed by reduction of XTT (Sigma, X4251). To each well, 50 μl of XTT (1 mg/ml) and 25 μl PMS (Sigma 9625, 5 mM) were added. After 3 h at 37° C., the OD of each well was read at 450 nm/690 nm by a plate reader.
as §4

| Structure (SMILES) | Melanoma tumor growth (tumor volume) [1] | Lung carcinoma tumor growth (tumor volume) [2] | IC50 ([3]; PANC-1, 24 h) | IC50 ([3]; PANC-1, 72 h) | IC50 ([4]; SKMEL-5, 24 h) | IC50 ([4]; SKMEL-5, 72 h) | IC50 ([5]; OVCAR-3, 24 h) | IC50 ([5]; OVCAR-3, 72 h) | IC50 ([6]; MCF-7, 24 h) | IC50 ([6]; MCF-7, 72 h) | IC50 ([7]; 24 h) | IC50 ([7]; 72 h) | IC50 ([8]; AT-2, 24 h) | IC50 ([8]; AT-2, 72 h) | IC50 ([9]; DU-145, 24 h) | IC50 ([9]; DU-145, 72 h) | IC50 [10] | IC50 [11] |
| --- | --- | --- | --- | --- | --- | --- | --- | --- | --- | --- | --- | --- | --- | --- | --- | --- | --- | --- |
| CC(C)C[C@H](NC(=O)[C@H](CCCN/C(N)=N/[N+](=O)[O-])NC(=O)C(CCCCCCCCN1C(=O)c2ccccc2C1=O)C1CCCC1)B(O)O (stereo partly shown) [E] | inhibit melanoma tumor growth | – | – | – | – | – | – | – | – | – | – | – | – | – | – | – | – | – |
| CC(C)C[C@@H](NC(=O)[C@H](CCCN/C(N)=N/[N+](=O)[O-])NC(=O)C(CCCCCCCCN1C(=O)c2ccccc2C1=O)C1CCCC1)B1O[C@H]2CC3CC(C3(C)C)C2(C)O1 (stereo partly shown) [Compound J] | – | inhibit lung carcinoma tumor growth | > 1 µM | 0.185 µM | 0.427 µM | 0.082 µM | > 1 µM | 0.029 µM | > 1 µM | 0.289 µM | 0.411 µM | 0.505 µM | > 1 µM | > 1 µM | 0.385 µM | 0.167 µM | – | – |
| CC(C)C[C@H](NC(=O)[C@H](CCCNC(N)=N[N+](=O)[O-])NC(=O)C(CCCCCCCCC#N)C1CCCC1)B(O)O (stereo partly shown) [D] | inhibit melanoma tumor growth | – | – | – | – | – | – | – | – | – | – | – | – | – | – | – | 0.005 µM | 0.6 µM |
